Assay results from patent US20190352663A1 (priority 2018, published 2019).

Assays:
CsSAG12-4 = format: in vivo, C. sinensis; details: 2 mM sprayed on leaves; 48 hours
CsSAG12-1 = format: in vivo, C. sinensis; details: 2 mM sprayed on leaves; 48 hours; not statistically significant
CsAALP = format: in vivo, C. sinensis; details: 2 mM sprayed on leaves; 48 hours; not statistically significant
CsPR1 = format: in vivo, C. sinensis; details: 2 mM sprayed on leaves; 48 hours
PtoDC3000Δcip1 = format: cell-based, Pseudomonas syringae pv. tomato; details: 100 μg/mL
[1] = target: CsRD21a-Flag expressed in N. benthamiana and secreted into the apoplast (Citrus sinensis); experiment: cell-based or functional assay
[2] = target: papain (Sigma-Aldrich), a PLCP from papaya (papaya) (UniProt P00784); experiment: cell-based or functional assay
UniProt P00784, sequence (P00784 134-345 limits assumed): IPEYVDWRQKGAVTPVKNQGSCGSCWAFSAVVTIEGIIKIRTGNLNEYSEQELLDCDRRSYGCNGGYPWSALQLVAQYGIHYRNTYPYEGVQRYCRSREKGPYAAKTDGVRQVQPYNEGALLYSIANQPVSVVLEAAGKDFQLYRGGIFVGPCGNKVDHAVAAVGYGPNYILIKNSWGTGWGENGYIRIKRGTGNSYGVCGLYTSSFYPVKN

Compound: O=C(O)c1ccccc1O [SA, salicylic acid]
- expression of CsSAG12-4 (CsSAG12-4): significantly up-regulated
- expression of CsSAG12-1 (CsSAG12-1): trend of increased expression
- expression of CsAALP (CsAALP): trend of increased expression
- expression of CsPR1 (CsPR1): increase

Compound: papain
- inhibitory effect on bacterial growth in artificial media (PtoDC3000Δcip1): not observed

Compound: purified recombinant SDE1 protein (tag-free after removal of the His-SUMO tag)
- CsRD21a activity (ABPP, ImageJ signal intensity) (% reduction at 0.8 µM SDE1) [1]: 9
- CsRD21a activity (ABPP, ImageJ signal intensity) (% reduction at 1.6 µM SDE1) [1]: 62
- CsRD21a activity (ABPP, ImageJ signal intensity) (% reduction at 3.2 µM SDE1) [1]: 96
- DCG-04 labeling of papain (ABPP) (% reduction at 1.6 µM SDE1) [2]: 53
